Common to all, as to format: physicochemical
Series [1] is described as follows: Flow properties: angle of repose.
Series [2] can be described thus: Bulk densities, Examples 1-14.
A short description of series [3]: Potency, Examples 15-56 (determined in conventional manner). The procedure:
The moisture contents of these powders were determined by the Karl Fischer method. The potency of the product was determined in conventional manner.

Structures are written as SMILES.

In the case of `CC1(C)S[C@@H]2[C@H](NC(=O)[C@H](N)c3ccccc3)C(=O)N2[C@H]1C(=O)O` [ampicillin trihydrate raw material, ampicillin trihydrate], in series [1], the “Angle of repose of raw material” value is on record as 64 °. Further, the “Bulk Density” value in series [2] is 0.67. For the same compound, the “Potency of ampicillin trihydrate raw materials” value was 83% in series [3] (raw material of Examples 15-29 and 41-48); 84% in series [3] (raw material of Examples 30-40); 86% in series [3] (raw material of Examples 49-56).

(Values after US4016254A, “Pharmaceutical formulations” (Beecham Group Limited, priority 1972, dated 1977).)
